{
  "source": "patent US20260325473A1",
  "about": "“N-Beta-Hydroxybutyryl-Amino Acids and Related Compositions and Methods” (The Board of Trustees of the Leland Stanford Junior …, priority 2023, published 2026)",
  "key": {"[1]": {"test_system": "diet-induced obese (DIO) mice", "test": "Acute administration in DIO mice in metabolic chambers", "type": "in vivo, mouse", "conditions": "50 mg/kg IP, single", "protocol": "General animal information. Animal experiments were performed according to procedure approved by the Stanford University Administrative Panel on Laboratory Animal Care (APLAC). Mice were maintained in 12-hr light-dark cycles at 22° C. and ~50% relative humidity and fed a standard irradiated rodent chow diet. Where indicated, high-fat diet (D12492, Research Diets 60% kcal from fat) and ketogenic diet (D06040601, Research Diets, 80% kcal fat/15% kcal protein/5% kcal carbohydrate) was used. Male C57BL/6J (stock no. 000664) and male C57BL/6J DIO mice (stock no. 380050) were purchased from Jackson Laboratory. Male C57BL/6NCrl (stock no. 027) mice were purchased from Charles River Laboratory. Whole body CNDP2-KO mice (catalog number, C57BL/6NCrl-Cndp2em1 (IMPC) Mbp/Mmucd, RRID: MMRRC_043492-UCD) were obtained from the Mutant Mouse Regional Resource Center, a NCRR-NIH funded strain repository. For in vivo injection of mice with metabolites, compounds were dissolved in 18:1:1 (by volume) of saline/Kolliphor EL (Sigma Aldrich)/DMSO. Compounds were administered to mice daily via intraperitoneal injections at 5 μl/g body weight at the indicated doses. For all injection experiments, mice were mock injected with the vehicle for 3-5 days until body weights have stabilized. Sample sizes were determined on the basis of previous experiments using similar methodologies. For metabolite administration experiments, mice were randomly assigned to treatment groups. Experimenters were not blinded to groups."}, "brain lysate proteins": {"test_system": "brain lysate proteins", "test": "Competition of X-Phe photoprobe-labeled brain proteins, quantitative shotgun proteomics", "type": "binding, mouse", "conditions": "100 μM photoprobe; 50-fold excess competitor", "protocol": "Shotgun proteomics of X-Phe photoprobe-labeled proteins. Brains from wild type C57BL/6J mice were harvested and homogenized using a bead blaster in PBS. Brain homogenate was centrifuged (15,000 rpm, 10 min) to yield the cytosolic supernatant and membrane pellet fractions. The cytosolic fraction was transferred to a new eppie and centrifuged again (15,000 rpm, 10 min). This process was repeated 4 times until no pellet was present after centrifugation. The membrane pellet was washed with 1 ml PBS and centrifuged (15,000 rpm, 10 min); this step was also repeated 4 times to remove any cytosolic protein contamination. After the centrifugation steps, the membrane pellet was re-suspended in PBS and sonicated. For competition experiments, brain lysate was normalized to 2 mg/ml in PBS and incubated with competitors at the indicated concentrations at room temperature for 30 minutes. 100 μM of the photoprobe was added and the reactions incubated on ice for 10 minutes protected from light. Reactions were then put under UV for 1 min on a UV Stratalinker. A biotin click reaction was performed by adding the following reagents to the indicated final concentrations: […], 1 mM CuSO4, 1 mM TCEP (freshly prepared), 30 μM Biotin-N3. Reactions were allowed to proceed for 1 hour at room temp, protected from light, and while rotating. The following prep was adapted from Niphakis et al. 2015. To each reaction, the following solvents were added in order, 4 ml cold methanol, 1 ml cold chloroform, 2 ml cold PBS. The mixture was vortexed well and centrifuged (4,600×g, 15 min, 4° C.). After centrifugation the organic and aqueous layers were removed without disruption of the protein disc. The protein disc was washed with a cold 1:1 mixture of methanol:chloroform 3 times. After the final wash, the protein disc was re-suspended in a 4:1 mixture of methanol:chloroform and sonicated. The insoluble protein was pelleted by centrifugation (4,600×g, 15 min, 4 C) and the pellet re-suspended in freshly prepared 500 μl of 6 M urea in PBS. 20 μl of 10% (w/v) SDS was added to the solution. The solution was then warmed in a 37 C water bath for 10 min to help dissolve poorly soluble protein. A streptavidin pulldown was the performed on the protein mixture. 250 μl of streptavidin beads were washed 3 times with 1 ml PBS. Protein samples were diluted with 5.5 ml of 0.25% SDS in PBS and incubated with streptavidin beads for 1.5 hr at room temperature. Following incubation, beads were washed 5 times each with 0.25% SDS in PBS, then PBS, then lastly with ultra-pure water Steptavidin beads were suspended in 150 μL resuspension buffer (1 M urea, 50 mM Tris-HCl, pH 8). Proteins were digested with 3 μg of trypsin for 4 hours. Digested peptides were reduced with 5 mM TCEP for 10 minutes. Cys residues were alkylated using 15 mM iodoacetimide (IAA) for 20 minutes. Finally, excess IAA was quenched with 10 mM DTT. Acidified digested peptides were desalted over C18 StageTips [PMID: 12585499]. Peptides were then eluted with 80% acetonitrile, 0.1% TFA and dried in a speedvac. Dried samples were reconstituted with 200 mM EPPS buffer, pH 8.0, and labelled with TMT reagents (Thermo Fisher Scientific). Following incubation at room temperature for 2 h, the reactions were quenched with hydroxylamine to a final concentration of 0.5% (v/v). […]"}, "DIO mice": {"test_system": "DIO mice", "test": "Food, kaolin and water intake in DIO mice", "type": "in vivo, mouse", "conditions": "50 mg/kg IP, single; 18 h", "protocol": "Kaolin and water intake assays. DIO mice were individually housed and allowed ad libitum access to kaolin pellets for 5 days before the start of the experiment. Mice were also provided high-fat diet and had ad libitum access to water. On the day of the experiment, kaolin and high-fat diet pellets were replaced with fresh pellets. Mice were then injected with either vehicle or BHB-Phe (50 mg/kg, IP), and high-fat diet, kaolin and water intake were measured after 18 h."}},
  "data": [
    {"smiles": "CC(O)CC(=O)N[C@@H](Cc1ccccc1)C(=O)O", "note": "(stereo partly drawn) [BHB-Phe, N-betahydroxybutyryl-phenylalanine]", "values": [
      {"measurement": "food intake (metabolic chambers)", "setting": "[1]", "result": "reduced food intake"},
      {"measurement": "ambulatory movement", "setting": "[1]; over 10 h", "result": "without affecting movement"},
      {"measurement": "energy expenditure: carbon dioxide production (VCO2)", "setting": "[1]; over 10 h", "result": "without affecting movement, oxygen consumption or CO^2 production"},
      {"measurement": "energy expenditure: oxygen consumption (VO2)", "setting": "[1]; over 10 h", "result": "without affecting movement, oxygen consumption"},
      {"measurement": "reduction of food intake", "setting": "[1]; over 10 h", "result": "~ 30%"},
      {"measurement": "respiratory exchange ratio (RER)", "setting": "[1]; over 10 h", "result": "reduction in respiratory exchange ratio (RER)"},
      {"measurement": "ambulatory movement", "setting": "[1]; over 10 h, listed as Keto-Phe", "result": "no effects"},
      {"measurement": "energy expenditure: carbon dioxide production (VCO2)", "setting": "[1]; over 10 h, listed as Keto-Phe", "result": "no effects"},
      {"measurement": "energy expenditure: oxygen consumption (VO2)", "setting": "[1]; over 10 h, listed as Keto-Phe", "result": "no effects"},
      {"measurement": "respiratory exchange ratio (RER)", "setting": "[1]; over 10 h, listed as Keto-Phe", "result": "no effects"},
      {"measurement": "competition of X-Phe photoprobe-labeled proteins", "setting": "brain lysate proteins", "result": "> 80", "unit": "%"},
      {"measurement": "number of brain proteins crosslinked by X-Phe photoprobe and >80% competed by Keto-Phe", "setting": "brain lysate proteins", "result": 32, "unit": "proteins"},
      {"measurement": "food intake (kaolin/water experiment)", "setting": "DIO mice", "result": "suppressed food intake"},
      {"measurement": "kaolin consumption", "setting": "DIO mice", "result": "without affecting water intake or kaolin consumption"},
      {"measurement": "water intake", "setting": "DIO mice", "result": "without affecting water intake"}
    ]}
  ]
}
